Results published in patent publication US20130071496A1, “CONTROLLED RELEASE COMPOSITION CONTAINING A STRONTIUM SALT” (Osteologix A/S, priority 2003, published 2013).
Read-outs that look alike come from different tables or passages of the source.

Key:
[1] = values quoted in scientific literature or reference material; cited from earlier work
[2] = Procedure: The solubility of the organic carboxylic acid strontium salts, were measured in water. The solubility of these salts was also measured as a function of temperature. This was performed by incubating the saturated solutions of the salts in temperature controlled incubators.
The buffered solutions were immersed into a bath of water temperature controlled at either room temperature (22-24° C.), at 30° C. or at 40° C. […] In order to eliminate any reminiscent strontium chloride influence on the determination of solubility, all the precipitate was collected at the bottom of the test tubes and the solutions above the precipitate were carefully removed and substituted by fresh solutions. […] From these solutions, the dissolved proportions of the strontium salt were collected in volumes of 1 mL at the specified temperature. The solutions were diluted to 50 mL before analysis by Flame Atomic Absorption Spectrometry (F-AAS).
Two methods were used for quantification of strontium in solutions: Flame Atomic Absorption Spectrometry (F-AAS), and the more sensitive inductively-coupled-plasmamass spectrometry (ICP-MS).
The solubilities were investigated as described above, and strontium content in the saturated solutions determined as described here below.
Some of the very soluble strontium salts were further diluted before analysis by F-AAS. The measurements were performed by using a Perkin-Elmer 2100 equipped with a hydrogen lamp for correction of the background signal. Strontium was measured at a slit with of 0.2 nm, the wavelength was 460.8 nm operated at an energy of 58 and a current of 8 mA.
This analysis was performed using a Perkin Elmer Elan 5000 system equipped with a cross-flow nebulizer. The power was set at 1000 W and the Argon-gas flow was 12 L/min and 0.8 L/min of the torch and plasma gas, respectively.

Remark: listed apart in the source

Structure (SMILES) | Solubility, Measured ([2]; commercially available salts, in water at room temperature (22-24°)) [mg/mL] | time to maximum serum concentration (serum strontium, single oral gavage, rats) | time to maximum serum concentration (rat, in vivo, po) | Solubility, Expected Value 18° C. [1] [mg/mL] | SOLUBILITY AT 40° C., In water [2] [mg/L] | SOLUBILITY AT ROOM TEMPERATURE (22-24° C.), In water [2] [Mg/L] | SOLUBILITY AT 40° C., pH 7.5 ([2]; pH 7.5) [mg/L] | SOLUBILITY AT ROOM TEMPERATURE (22-24° C.), pH 7.5 ([2]; pH 7.5) [Mg/L] | solubility in pH 7.5 buffered solution compared with pure water ([2]; pH 7.5) | solubility compared to the other organic strontium salts [2]
O=C([O-])/C=C\C(=O)[O-].[Sr+2] [Maleate, strontium maleate] | – | – | – | – | 2527 | 3002 | 1457 | 1680 | decreased solubility in the buffered solution | –
CC(=O)C(=O)O [Pyruvate, strontium pyruvate] | – | – | – | – | – | 2204 | – | 1946 | – | –
O=C([O-])/C=C/C(=O)[O-].[Sr+2] [Fumerate, strontium fumarate] | – | – | – | – | 444 | 571 | 977 | 1215 | – | poor solubility

Second part, led by results:

Solubility, Measured ([2]; commercially available salts, in water at room temperature (22-24°)) [mg/mL] | time to maximum serum concentration (serum strontium, single oral gavage, rats) | time to maximum serum concentration (rat, in vivo, po) | Structure (SMILES) | Solubility, Expected Value 18° C. [1] [mg/mL] | SOLUBILITY AT 40° C., In water [2] [mg/L] | SOLUBILITY AT ROOM TEMPERATURE (22-24° C.), In water [2] [Mg/L] | SOLUBILITY AT 40° C., pH 7.5 ([2]; pH 7.5) [mg/L] | SOLUBILITY AT ROOM TEMPERATURE (22-24° C.), pH 7.5 ([2]; pH 7.5) [Mg/L] | solubility in pH 7.5 buffered solution compared with pure water ([2]; pH 7.5) | solubility compared to the other organic strontium salts [2]
240 | approximately 2 hours | – | [Cl-].[Cl-].[Sr+2] [SrCl2, strontium chloride] | 538 | – | – | – | – | – | –
– | – | approximately 2 hours | N#Cc1c(N(CC(=O)[O-])CC(=O)[O-])sc(C(=O)[O-])c1CC(=O)[O-].[Sr+2].[Sr+2] [Ranelate, distrontium salt of 2-[N,N-di(carboxymethyl)amino]-3-cyano-4-carboxymethylthiophene-5-carboxylic acid, reference compound] | – | 1450 | 760 | 1970 | 890 | – | –
